The source of these data is PubChem BioAssay AID1259411 (Chemical Carcinogenesis Research Information System (CCRIS), 2018).

The source made the active and inactive calls. The rule behind the calls is not given here.

In this data set the test system is rodent carcinogenicity bioassays, tumor incidence. The data set is described as follows: CCRIS carcinogenicity studies. Put shortly: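 Archive of carcinogenicity, mutagenicity, tumor promotion and tumor inhibition results drawn from journals, NCI reports and other sources, expert-reviewed; covers 1985-2011 and is no longer updated.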

`c1ccc2c(c1)ccc1c3ccccc3ccc21`: the carcinogen call was “active; positive” (Species: MOUSE, Route: DERMAL, Tumor Site: Type of Lesion: INTEGUMENTARY SYSTEM (SKIN)); “active; positive” (Species: MOUSE, Strain/Sex: ICR/FEMALE, Route: DERMAL, Dose: 0, 0.1 MG, 3/WK FOR 17 MO, Tumor Site: Type of Lesion: INTEGUMENTARY SYSTEM (SKIN): CARCINOMA); “inactive; negative” (Species: MOUSE, Strain/Sex: ICR/FEMALE, Route: INTRAPERITONEAL, Dose: 0, 6.3 UG TOTAL DOSE (0.9 UG/5 µL, 1.8 UG/10 µL, 3.6 UG/20 µL DMSO ON DAYS 1, 8 AND 15), 210 UG TOTAL DOSE (30 UG/5 µL,, Dose: 0, 6.3 UG TOTAL DOSE (0.9 UG/5 µL, 1.8 UG/10 µL, 3.6 UG/20 µL DMSO ON DAYS 1, 8 AND 15), 210 UG TOTAL DOSE (30 UG/5 µL); “inactive; negative” (Species: MOUSE, Strain/Sex: ICR/MALE, Route: INTRAPERITONEAL, Dose: 0, 6.3 UG TOTAL DOSE (0.9 UG/5 µL, 1.8 UG/10 µL, 3.6 UG/20 µL DMSO ON DAYS 1, 8 AND 15), 210 UG TOTAL DOSE (30 UG/5 µL,, Dose: 0, 6.3 UG TOTAL DOSE (0.9 UG/5 µL, 1.8 UG/10 µL, 3.6 UG/20 µL DMSO ON DAYS 1, 8 AND 15), 210 UG TOTAL DOSE (30 UG/5 µL); “active; positive” (Species: RAT, Strain/Sex: OSBORNE-MENDEL/FEMALE, Route: INTRAPULMONARY IMPLANT, Dose: 0, 1, 3 MG IN BEESWAX AND TRIOCTANOIN IMPLANTED IN LUNG (STUDY DURATION: 141 WK), Dose: 0, 1, 3 MG IN BEESWAX AND TRIOCTANOIN IMPLANTED IN LUNG (STUDY DURATION: 141 WK), Tumor Site: Type of Lesion: LUNG: CARCINOMA).
Consider `COc1ccc2c3c(cccc13)OC([N+](=O)[O-])=C2`, for which the carcinogen call (Species: RAT, Strain/Sex: WISTAR/MALE, Route: SUBCUTANEOUS, Dose: 0, 0.5 MG IN DMSO 1/WK FOR DURATION OF STUDY (TOTAL DOSE: 0; 10.23 MG) (STUDY DURATION: 156 D), Dose: 0, 0.5 MG IN DMSO 1/WK FOR DURATION OF STUDY (TOTAL DOSE: 0; 10.23 MG) (STUDY DURATION: 156 D), Tumor Site: Type of Lesion: INJECTION SITE: FIBROSARCOMA) is “active; positive”.
On to `Cn1c(N)nc2c3ccc(=O)[nH]c3ccc21`, for which the carcinogen call (Species: MOUSE, Strain/Sex: CD-1/FEMALE, Route: INTRAPERITONEAL, ORAL, Dose: 0, 5 µL OF A 21.7 MG/ML SOLUTION IN DMSO ON DAYS 1, 3, 5, 7, 10, 13, 17, 21, 24 AND 28 OF LIFE THEN 2/WK TO WK 10 FOLLOW, Tumor Site: Type of Lesion: LIVER: CARCINOMA) is “active; positive”; the carcinogen call (Species: MOUSE, Strain/Sex: CD-1/MALE, Route: INTRAPERITONEAL, ORAL, Dose: 0, 5 µL OF A 21.7 MG/ML SOLUTION IN DMSO ON DAYS 1, 3, 5, 7, 10, 13, 17, 21, 24 AND 28 OF LIFE THEN 2/WK TO WK 10 FOLLOW) was “inactive; negative”; the carcinogen call (Species: RAT, Strain/Sex: F344/MALE, Route: INTRARECTAL, Dose: 0, 54.8 MG/KG IN 1.7 ML/KG DMSO INFUSED 3/WK FOR 2 MO THEN 2/WK FOR DURATION OF STUDY (STUDY DURATION: 21 MO)) was “inactive; negative”.
`CSC1=N[C@@](C)(c2ccccc2)C(=O)N1Nc1ccccc1`: the carcinogen call runs as follows: (Species: Mouse, Strain/Sex: C57BL/10JfCD-1 Alpk/Female (55/Group), Route: Oral, Dose: 0, 70, 350, 3500, 7000 ppm (0; 12.6; 63.8; 690.5; 1393.2 mg/kg/d) for 80 wks, study duration 80 wks, Dose: 0, 70, 350, 3500, 7000 ppm (0; 12.6; 63.8; 690.5; 1393.2 mg/kg/d) for 80 wks, study duration 80 wks) “inactive; negative”; (Species: Mouse, Strain/Sex: C57BL/10JfCD-1 Alpk/Male (55/Group), Route: Oral, Dose: 0, 70, 350, 3500, 7000 ppm (0; 9.5; 47.5; 525.5; 1100.2 mg/kg/d) for 80 wks, study duration 80 wks, Dose: 0, 70, 350, 3500, 7000 ppm (0; 9.5; 47.5; 525.5; 1100.2 mg/kg/d) for 80 wks, study duration 80 wks) “inactive; negative”; (Species: Rat, Strain/Sex: Sprague-Dawley/Female (70/Group), Route: Oral, Dose: 0, 60, 150, 1000 ppm (0; 3.63; 9.24; 60.93 mg/kg/day) in diet for 104 wks, study duration 104 wks, Dose: 0, 60, 150, 1000 ppm (0; 3.63; 9.24; 60.93 mg/kg/day) in diet for 104 wks, study duration 104 wks) “inactive; negative”; (Species: Rat, Strain/Sex: Sprague-Dawley/Female (70/Group), Route: Oral, Dose: 0, 5000 ppm in diet for 104 wks, study duration 104 wks, Dose: 0, 5000 ppm in diet for 104 wks, study duration 104 wks) “inactive; negative”; (Species: Rat, Strain/Sex: Sprague-Dawley/Male (70/Group), Route: Oral, Dose: 0, 60, 150, 1000 ppm (0; 2.83; 7.07; 47.68 mg/kg/day) in diet for 104 wks, study duration 104 wks, Dose: 0, 60, 150, 1000 ppm (0; 2.83; 7.07; 47.68 mg/kg/day) in diet for 104 wks, study duration 104 wks) “inactive; negative”; (Species: Rat, Strain/Sex: Sprague-Dawley/Male (70/Group), Route: Oral, Dose: 0, 5000 ppm in diet for 104 wks, study duration 104 wks, Dose: 0, 5000 ppm in diet for 104 wks, study duration 104 wks) “inactive; negative”.
Turning to `O=Cc1ccccc1`, the carcinogen call is, setting by setting: (Species: MOUSE, Strain/Sex: B6C3F1/FEMALE, Route: GAVAGE, Dose: 0, 300, 600 MG/KG IN CORN OIL 5 D/WK FOR 103 WK (STUDY DURATION: 104 WK), Dose: 0, 300, 600 MG/KG IN CORN OIL 5 D/WK FOR 103 WK (STUDY DURATION: 104 WK), Tumor Site: Type of Lesion: FORESTOMACH: SQUAMOUS PAPILLOMA) “active; positive”; (Species: MOUSE, Strain/Sex: B6C3F1/MALE, Route: GAVAGE, Dose: 0, 200, 400 MG/KG IN CORN OIL 5 D/WK FOR 104 WK (STUDY DURATION: 105 WK), Dose: 0, 200, 400 MG/KG IN CORN OIL 5 D/WK FOR 104 WK (STUDY DURATION: 105 WK), Tumor Site: Type of Lesion: FORESTOMACH: SQUAMOUS PAPILLOMA) “active; positive”; (Species: RAT, Strain/Sex: F344/FEMALE, Route: GAVAGE, Dose: 0, 200, 400 MG/KG IN CORN OIL 5 D/WK FOR 103 WK (STUDY DURATION: 105 WK), Dose: 0, 200, 400 MG/KG IN CORN OIL 5 D/WK FOR 103 WK (STUDY DURATION: 105 WK)) “inactive; negative”; (Species: RAT, Strain/Sex: F344/MALE, Route: GAVAGE, Dose: 0, 200, 400 MG/KG IN CORN OIL 5 D/WK FOR 103 WK (STUDY DURATION: 105 WK), Dose: 0, 200, 400 MG/KG IN CORN OIL 5 D/WK FOR 103 WK (STUDY DURATION: 105 WK)) “inactive; negative”.
`C[C@@H]1C[C@H](C)CN(S(=O)(=O)c2ccc(Cl)c(C(=O)O)c2)C1`: under “Species: RAT, Strain/Sex: F344/MALE, Route: ORAL, Dose: 0.2% IN DIET FOR 7.5 MO, THEN 0.1% FOR 4 MO, THEN 0.05% FOR 4 MO, Tumor Site: Type of Lesion: LIVER: HEPATOCELLULAR CARCINOMA”, the carcinogen call is “active; positive”.
Take `CCN(CCO)N=O`: the carcinogen call was “inactive; negative” (Species: HAMSTER, Strain/Sex: SYRIAN/MALE, Route: ORAL, Dose: 0, 1000, 2000 PPM IN DIET FOR 2 WK (STUDY DURATION: 30 WK), Dose: 0, 1000, 2000 PPM IN DIET FOR 2 WK (STUDY DURATION: 30 WK)); “active; positive” (Species: MOUSE, Strain/Sex: BALB/C/MALE, Route: ORAL, Dose: 0, 1000, 2000 PPM IN DRINKING WATER FOR 2 WK (STUDY DURATION: 52 WK), Dose: 0, 1000, 2000 PPM IN DRINKING WATER FOR 2 WK (STUDY DURATION: 52 WK), Tumor Site: Type of Lesion: LUNG: TUMOR); “active; positive” (Species: MOUSE, Strain/Sex: BALB/MALE, Route: ORAL, Dose: 0, 1000, 2000 PPM IN DIET FOR 2 WK (STUDY DURATION: 30 WK), Dose: 0, 1000, 2000 PPM IN DIET FOR 2 WK (STUDY DURATION: 30 WK), Tumor Site: Type of Lesion: LUNG: TUMOR); “active; positive” (Species: MOUSE, Strain/Sex: STRAIN-A/MALE, Route: ORAL, Dose: 0, 1000, 2000 PPM IN DIET FOR 2 WK (STUDY DURATION: 30 WK), Dose: 0, 1000, 2000 PPM IN DIET FOR 2 WK (STUDY DURATION: 30 WK), Tumor Site: Type of Lesion: LIVER: TUMOR, LUNG: TUMOR); “inactive; negative” (Species: RAT, Strain/Sex: F344/MALE, Route: ORAL, Dose: 0, 1000 PPM IN DIET FOR 2 WK (STUDY DURATION: 30 WK)); “active; positive” (Species: RAT, Strain/Sex: WISTAR/FEMALE, Route: ORAL, Dose: 0, 1000 PPM IN DIET FOR 2 WK (STUDY DURATION: 30 WK), Tumor Site: Type of Lesion: KIDNEY: RENAL CELL TUMOR). For the same molecule, the carcinogen call was “active; positive” (Species: RAT, Strain/Sex: WISTAR/MALE, Route: ORAL, Dose: 0, 1000, 2000 PPM IN DRINKING WATER FOR 2 WK (STUDY DURATION: 52 WK), Dose: 0, 1000, 2000 PPM IN DRINKING WATER FOR 2 WK (STUDY DURATION: 52 WK), Tumor Site: Type of Lesion: KIDNEY: TUMOR); “active; positive” (Species: RAT, Strain/Sex: WISTAR/MALE, Route: ORAL, Dose: 0, 1000 PPM IN DIET FOR 2 WK (STUDY DURATION: 30 WK), Tumor Site: Type of Lesion: KIDNEY: RENAL CELL TUMOR, LIVER: TUMOR); “active; positive” (Species: RAT, Strain/Sex: WISTAR/MALE, Route: ORAL, Dose: 0, 1000 PPM IN DRINKING WATER FOR 2 WK (STUDY DURATION: 30 WK), Tumor Site: Type of Lesion: KIDNEY: RENAL CELL TUMOR).
